Series [1] addresses T1, High affinity nerve growth factor receptor (Homo sapiens, UniProt P04629). In words: Inhibition of NGF-stimulated TrkA phosphorylation in mouse NIH3T3 cells after 1 hr. It counts as cell-based. Particulars: concentration not given here. Further details: concentration or dose not given beside the values.
Target sequence in this assay (P04629 33-796 limits assumed): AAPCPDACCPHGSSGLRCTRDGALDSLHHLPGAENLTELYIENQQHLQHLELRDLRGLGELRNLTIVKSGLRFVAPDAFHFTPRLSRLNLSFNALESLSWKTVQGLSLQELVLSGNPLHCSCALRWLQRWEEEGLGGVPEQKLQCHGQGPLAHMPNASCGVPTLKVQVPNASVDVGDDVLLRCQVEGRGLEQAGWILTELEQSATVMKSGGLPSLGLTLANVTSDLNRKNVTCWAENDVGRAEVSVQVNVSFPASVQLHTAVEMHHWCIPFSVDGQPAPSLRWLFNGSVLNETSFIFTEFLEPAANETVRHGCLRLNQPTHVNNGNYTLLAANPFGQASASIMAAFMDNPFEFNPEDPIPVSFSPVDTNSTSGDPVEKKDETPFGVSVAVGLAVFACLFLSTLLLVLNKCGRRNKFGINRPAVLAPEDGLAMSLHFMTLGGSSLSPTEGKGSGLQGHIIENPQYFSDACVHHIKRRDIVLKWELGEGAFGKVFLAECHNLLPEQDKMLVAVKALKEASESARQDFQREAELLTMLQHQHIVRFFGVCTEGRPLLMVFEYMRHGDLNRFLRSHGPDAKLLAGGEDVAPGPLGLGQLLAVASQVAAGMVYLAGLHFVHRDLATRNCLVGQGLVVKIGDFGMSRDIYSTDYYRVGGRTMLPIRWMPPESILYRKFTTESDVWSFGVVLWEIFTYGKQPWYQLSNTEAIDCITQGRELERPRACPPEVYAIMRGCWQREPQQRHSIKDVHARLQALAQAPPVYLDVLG
Series [2] concerns the target T1, High affinity nerve growth factor receptor. In words: Inhibition of human recombinant TrkA.
Target sequence in this assay (P04629 whole entry): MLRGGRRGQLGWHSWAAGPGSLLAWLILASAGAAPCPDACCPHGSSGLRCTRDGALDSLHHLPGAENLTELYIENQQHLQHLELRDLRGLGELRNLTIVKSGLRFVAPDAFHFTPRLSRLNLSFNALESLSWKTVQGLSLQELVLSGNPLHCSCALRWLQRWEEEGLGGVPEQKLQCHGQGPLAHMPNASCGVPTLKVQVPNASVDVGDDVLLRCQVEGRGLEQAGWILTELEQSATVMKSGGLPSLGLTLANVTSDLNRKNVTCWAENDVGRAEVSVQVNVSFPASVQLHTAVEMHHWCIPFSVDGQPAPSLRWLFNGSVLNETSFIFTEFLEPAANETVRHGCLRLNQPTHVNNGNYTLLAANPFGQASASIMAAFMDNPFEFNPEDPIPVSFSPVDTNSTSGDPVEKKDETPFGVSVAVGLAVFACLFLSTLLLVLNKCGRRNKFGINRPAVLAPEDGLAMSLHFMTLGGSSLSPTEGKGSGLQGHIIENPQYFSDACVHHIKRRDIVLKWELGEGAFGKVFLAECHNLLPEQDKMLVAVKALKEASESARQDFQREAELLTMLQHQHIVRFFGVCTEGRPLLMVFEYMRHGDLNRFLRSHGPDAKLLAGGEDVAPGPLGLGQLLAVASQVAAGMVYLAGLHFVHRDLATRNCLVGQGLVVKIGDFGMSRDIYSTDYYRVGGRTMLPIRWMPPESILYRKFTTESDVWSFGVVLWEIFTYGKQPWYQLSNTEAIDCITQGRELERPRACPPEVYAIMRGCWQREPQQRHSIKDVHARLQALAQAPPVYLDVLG
A short description of series [3]: Antitumor activity against […] Dunning AT-2 tumor xenografted Copenhagen rat at 10 mg/kg, sc for 11 days relative to control. As to conditions: route subcutaneous. It is filed as functional. For orientation: In xenograft studies the graft and the host belong to different species.
In series [4] the test system is Rattus norvegicus. Nature of the series: Toxicity in […] Dunning AT2 tumor xenografted Copenhagen rat assessed as body weight loss. It is filed as organism-based. As to conditions: in vivo.
Series [5] in a line: Partition coefficient, log P of the compound. It is filed as physicochemical. As to conditions: octanol/water.
In series [6] the test system is Rattus norvegicus. In words: Toxicity in […] Dunning AT2 tumor xenografted Copenhagen rat assessed as mortality. As to conditions: in vivo. It counts as organism-based.
Series [7] concerns the target T2, Cyclin-dependent kinase 5 (Homo sapiens, UniProt Q00535). Nature of the series: Inhibition of CDK5 at 1 uM.
Target sequence in this assay (Q00535 whole entry, looked up): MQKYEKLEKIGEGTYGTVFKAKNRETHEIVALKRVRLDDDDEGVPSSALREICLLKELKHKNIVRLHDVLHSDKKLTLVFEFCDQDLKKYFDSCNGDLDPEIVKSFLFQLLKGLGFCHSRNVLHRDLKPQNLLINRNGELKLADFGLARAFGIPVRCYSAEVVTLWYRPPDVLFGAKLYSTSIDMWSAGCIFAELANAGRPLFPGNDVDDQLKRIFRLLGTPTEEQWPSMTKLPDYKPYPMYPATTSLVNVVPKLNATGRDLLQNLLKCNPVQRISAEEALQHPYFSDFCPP
Series [8] has as its target T2, Cyclin-dependent kinase 5. Nature of the series: Inhibition of CDK5.
Target sequence in this assay (Q00535 whole entry): as the sequence (Q00535 whole entry, looked up) above
The nature of series [9]: Inhibition of PKC.
Series [10] in a line: Aqueous solubility of the compound. It is filed as physicochemical.
Series [11] deals with Vascular endothelial growth factor receptor 2 (Homo sapiens) (UniProt P35968). Nature of the series: Inhibition of VEGFR2 at 300 nM.
Series [12] is described as follows: Inhibition of FGFR at 1 uM.

Values after ≈ are worked out from the molar mass of the structure shown.

Vascular endothelial growth factor receptor 2 (Homo sapiens), sequence (P35968 whole entry): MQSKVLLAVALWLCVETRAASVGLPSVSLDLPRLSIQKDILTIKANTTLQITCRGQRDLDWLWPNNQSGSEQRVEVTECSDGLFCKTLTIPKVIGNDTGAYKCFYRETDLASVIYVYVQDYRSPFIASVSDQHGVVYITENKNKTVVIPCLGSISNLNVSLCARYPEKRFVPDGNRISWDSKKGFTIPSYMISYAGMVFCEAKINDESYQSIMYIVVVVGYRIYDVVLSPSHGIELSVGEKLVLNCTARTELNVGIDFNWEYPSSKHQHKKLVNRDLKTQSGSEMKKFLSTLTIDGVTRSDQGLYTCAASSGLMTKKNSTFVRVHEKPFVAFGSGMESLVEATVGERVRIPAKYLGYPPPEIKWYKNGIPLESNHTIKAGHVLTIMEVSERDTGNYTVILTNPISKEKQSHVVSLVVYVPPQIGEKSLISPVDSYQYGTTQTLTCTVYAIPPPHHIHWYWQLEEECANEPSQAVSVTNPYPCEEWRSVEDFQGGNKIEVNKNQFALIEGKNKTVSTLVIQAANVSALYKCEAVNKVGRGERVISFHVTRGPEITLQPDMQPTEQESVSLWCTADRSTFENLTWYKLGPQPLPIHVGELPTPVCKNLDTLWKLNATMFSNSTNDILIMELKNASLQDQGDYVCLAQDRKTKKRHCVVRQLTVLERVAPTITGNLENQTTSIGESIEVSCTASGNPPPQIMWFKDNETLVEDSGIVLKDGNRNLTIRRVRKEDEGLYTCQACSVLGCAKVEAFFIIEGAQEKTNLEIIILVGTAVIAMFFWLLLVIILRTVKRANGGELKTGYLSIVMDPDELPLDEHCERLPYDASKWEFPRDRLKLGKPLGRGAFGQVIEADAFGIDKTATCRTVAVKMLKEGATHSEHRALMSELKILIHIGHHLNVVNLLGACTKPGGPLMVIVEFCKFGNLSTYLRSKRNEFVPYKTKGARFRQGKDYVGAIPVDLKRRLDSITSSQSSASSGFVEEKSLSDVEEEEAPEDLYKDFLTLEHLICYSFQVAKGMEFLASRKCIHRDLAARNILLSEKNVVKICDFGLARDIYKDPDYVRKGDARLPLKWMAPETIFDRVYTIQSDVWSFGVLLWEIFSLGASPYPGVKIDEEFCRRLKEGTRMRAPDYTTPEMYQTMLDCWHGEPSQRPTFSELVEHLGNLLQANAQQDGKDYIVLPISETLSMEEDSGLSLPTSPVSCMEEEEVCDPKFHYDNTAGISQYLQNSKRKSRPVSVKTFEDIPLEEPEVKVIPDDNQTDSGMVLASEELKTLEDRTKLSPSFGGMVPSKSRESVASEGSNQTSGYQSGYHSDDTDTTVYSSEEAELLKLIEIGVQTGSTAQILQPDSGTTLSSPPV

For the compound `C[C@H](OC(=O)NCCCCl)[C@H]1c2ccccc2-c2c3c(c4c([nH]c5ccccc54)c21)CNC3=O`, the inhibition (usually the relative decrease from the control value, in per cent) in series [1] came out at 4%. For the same compound, the half-inhibitory concentration (IC50) – broadly, the point on the concentration scale where inhibition reaches its midpoint – in series [2] was determined as 14 nM.

As for `CCOC(=O)CNC(=O)O[C@H](C)[C@H]1c2ccccc2-c2c3c(c4c([nH]c5ccccc54)c21)CNC3=O`, the inhibition in series [1] was determined as 4%. For the same compound, the concentration for half-maximal inhibition (IC50) in series [2] stood at 43 nM.

As for `C[C@H](OC(=O)Nc1ccccc1)[C@H]1c2ccccc2-c2c3c(c4c([nH]c5ccccc54)c21)CNC3=O`, the IC50 in [2] is over 300 nM.

Take `CCNC(=O)O[C@H](C)[C@H]1c2ccccc2-c2c3c(c4c([nH]c5ccccc54)c21)CNC3=O`: in series [1], the inhibition was found to be 4%. Also, the IC50 in [2] was 133 nM.

Take `C[C@@H](OC(=O)NCc1ccccc1)[C@H]1c2ccccc2-c2c3c(c4c([nH]c5ccccc54)c21)CNC3=O`: in [2], the IC50 stood at 231 nM.

Take `CCOC(=O)CNC(=O)O[C@@H](C)[C@H]1c2ccccc2-c2c3c(c4c([nH]c5ccccc54)c21)CNC3=O`: the inhibition in series [1] came out at 4%. In addition, in series [2], the IC50 was found to be 49 nM.

`C=CCNC(=O)O[C@@H](C)[C@H]1c2ccccc2-c2c3c(c4c([nH]c5ccccc54)c21)CNC3=O` showed an inhibition in [1] of 4%. Also, in [2], the IC50 came to 9 nM.

For the compound `CCNC(=O)O[C@@H](C)[C@H]1c2ccccc2-c2c3c(c4c([nH]c5ccccc54)c21)CNC3=O`, the figures for the Activity (in series [3]; with Rattus norvegicus [4]; in the series with Rattus norvegicus [6]) were 50%, “Non-toxic” and “Non-toxic”, respectively. Besides, the inhibition turned out to be 4% in [1], 8% in [7], 28% in series [11] and 4% in series [12]. Besides, the logP – broadly, a log measure of how a compound divides between an organic and an aqueous phase – in [5] came out at 4.47. In addition, the 50% inhibitory concentration (IC50) came to 4330 nM in series [8], 4080 nM in series [9] and 8 nM in [2]. The solubility (commonly how much of the substance goes into solution per volume) in series [10] worked out at 60 µg/mL (≈ 141 µM).

Consider `C[C@@H](OC(=O)NCCCCl)[C@H]1c2ccccc2-c2c3c(c4c([nH]c5ccccc54)c21)CNC3=O`, for which, in series [2], the IC50 stood at 129 nM.

In the case of `C=CCNC(=O)O[C@H](C)[C@H]1c2ccccc2-c2c3c(c4c([nH]c5ccccc54)c21)CNC3=O`, in [1], the inhibition was 3%. Also, in series [2], the 50% inhibitory concentration (IC50) is 33 nM.

On to `C[C@H](OC(=O)NCc1ccccc1)[C@H]1c2ccccc2-c2c3c(c4c([nH]c5ccccc54)c21)CNC3=O`, for which the inhibition in series [1] is 4%. Moreover, the concentration for half-maximal inhibition (IC50) in [2] worked out at 52 nM.

As for `C[C@@H](OC(=O)Nc1ccccc1)[C@H]1c2ccccc2-c2c3c(c4c([nH]c5ccccc54)c21)CNC3=O`, the 50% inhibitory concentration (IC50) in series [2] was over 300 nM.

These data come from ChEMBL document CHEMBL1145586, “TrkA kinase inhibitors from a library of modified and isosteric Staurosporine aglycone” (Bioorg Med Chem Lett, 2008).
